In paper PMC7252647, “Inhibition of the NAD salvage pathway in schistosomes impairs metabolism, reproduction, and parasite survival” (PLoS Pathogens, 2020):

Test system: T1, native SmNACE
T1 construct: native ectoenzyme on the outer tegument of live adult worms (2 male + 2 female per well)
Assay: fluorimetric NAD glycohydrolase assay on live adult worms, ε-ADPR release
Assay type: cell-based, Schistosoma mansoni
Details: ε-NAD substrate (20 μM in the assay), live worms (2 male + 2 female) in 200 μl HBSS, 37 °C
Text: fluorimetric NAD glycohydrolase assay on live adult worms, ε-ADPR release on native SmNACE | The IC50 of CMP1 on live parasites is indicated.

Cc1occc1C(=O)N/N=C\c1ccc(O)c(O)c1 [CMP1, (Z)-N′-(3,4-Dihydroxybenzylidene)-2-methylfuran-3-carbohydrazide]
IC50: 78 µM
